Experimental findings from ChEMBL document CHEMBL1201862, “PubChem BioAssay data set” (2004) are described below.

Test systems include U-251; ACHN; SF-539; CCRF-CEM; A549; NCI-H23; COLO 205; RPMI-8226; HOP-62; HCT-15; UACC-62; SF-295; SNB-75; KM12; OVCAR-8; RXF 393; OVCAR-4.
Holding throughout (experiment): NCI-60 cell line screen, 48 h

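Step 1: Grow cells in 96-well plates. Step 2: Expose to compound for 48 hours at 5 concentrations. Step 3: Interpolate endpoints linearly; if unreached, use highest concentration. GI50 = concentration required for 50% inhibition of growth.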 Activity calls are given as the source filed them. No stated cut-off is given here; in the data, active = GI50 up to about 1.1 µM and inactive = higher.

For `Cc1cccc(C)c1N1C(=O)C(=O)C(c2nc3ccccc3s2)/C(=N/NC(=O)c2ccccc2O)C1=O` (configuration not stated), the GI50 in the test on U-251 is 20.6 µM (inactive); with ACHN it was 6.65 µM (inactive); in the test on SF-539, 6.87 µM (inactive); with CCRF-CEM, 4.8 µM (inactive); in the test on A549, 11.7 µM (inactive); in the test on NCI-H23, 7.38 µM (inactive). Further, the GI50 was 27.4 µM (inactive) in the test with COLO 205; 12.7 µM (inactive) with RPMI-8226; 9.18 µM (inactive) in the test with HOP-62; 14.7 µM in the test with HCT-15; 2.08 µM (inactive) in the test on UACC-62; 33.3 µM (inactive) in the test with SF-295. The GI50 in the test with SNB-75 was 1.05 µM (active); with KM12 it was 35.2 µM (inactive); in the test with OVCAR-8 it was 21 µM (inactive); in the test with RXF 393, 3.09 µM (inactive); in the test on OVCAR-4, 16.8 µM (inactive).

As for `O=C1C=CC(=O)C12CCc1ccccc12`, the GI50 was > 100 µM (inactive) in the test with U-251; > 100 µM (inactive) in the test with ACHN; > 100 µM (inactive) with SF-539; 28.5 µM (inactive) in the test with CCRF-CEM; > 100 µM (inactive) with A549; > 100 µM (inactive) in the test with NCI-H23. For the same compound, the GI50 was 57.5 µM (inactive) with COLO 205; 12.1 µM (inactive) in the test with RPMI-8226; > 100 µM (inactive) in the test on HOP-62; greater than 72.8 µM in the test with HCT-15; > 100 µM (inactive) in the test with UACC-62; > 31.6 µM (inactive) with SF-295. Besides, the GI50 with SNB-75 is 51.2 µM (inactive); in the test on KM12, > 100 µM (inactive); in the test with OVCAR-8, > 100 µM (inactive); with RXF 393, > 94.6 µM (inactive); in the test with OVCAR-4 it was > 100 µM (inactive).

Consider `C[C@]12CCC(=O)C(O)=C1CCC2=O`, for which the GI50 with U-251, in the test on ACHN, in the test on SF-539, in the test on CCRF-CEM, in the test with A549 and in the test on COLO 205 was > 100 µM (inactive) in each case. The GI50 with RPMI-8226 was > 100 µM (inactive); in the test on HOP-62 it was > 100 µM (inactive); with HCT-15, greater than 100 µM; with UACC-62 it was > 100 µM (inactive); in the test with SF-295, > 100 µM (inactive); in the test with SNB-75 it was > 100 µM (inactive). For the same compound, the GI50 with KM12, in the test with OVCAR-8, in the test with RXF 393 and in the test on OVCAR-4 was > 100 µM (inactive) each time.

As for `CC1CCCC2(O1)OC1CC(=O)OC1C1=C2C(=O)c2ccccc2C1=O` (configuration not stated), the GI50 in the test on U-251 was 18.2 µM (inactive); in the test with ACHN, 4.39 µM (inactive); in the test with SF-539, 5.81 µM (inactive); in the test on CCRF-CEM, 1.57 µM (inactive); in the test on A549 it was 16.9 µM (inactive); in the test with NCI-H23 it was 5.13 µM (inactive). The GI50 was 2.02 µM (inactive) in the test on COLO 205; 1.22 µM (inactive) with RPMI-8226; 16.4 µM (inactive) in the test on HOP-62; 2.8 µM with HCT-15; 2.25 µM (inactive) in the test on UACC-62; 17.6 µM (inactive) in the test on SF-295. The GI50 in the test with SNB-75 was 11.2 µM (inactive); with KM12, 12.1 µM (inactive); in the test on OVCAR-8 it was 2.51 µM (inactive); in the test with RXF 393, 2.13 µM (inactive); with OVCAR-4, 1.86 µM (inactive).

With `O=C(O)C12CC3CC(CC(F)(C3)C1)C2`, the GI50 with U-251, with ACHN, in the test with SF-539, in the test with CCRF-CEM, in the test on A549 and in the test with NCI-H23 was > 100 µM (inactive) each time. Besides, the GI50 in the test on COLO 205 was > 100 µM (inactive); in the test with RPMI-8226 it was > 100 µM (inactive); in the test with HOP-62, > 100 µM (inactive); with UACC-62, > 100 µM (inactive); with SNB-75, 65.5 µM (inactive); with KM12 it was > 100 µM (inactive). Further, the GI50 with OVCAR-8 and in the test on RXF 393 was > 100 µM (inactive) throughout.

Regarding `Clc1cccc(N2CCN(CCCN3CCc4c([nH]c5ccccc45)C3c3cccnc3)CC2)c1` (configuration not stated), the GI50 was 10.7 µM (inactive) in the test with U-251; 12.4 µM (inactive) with ACHN; 3.61 µM (inactive) in the test with SF-539; 6.76 µM (inactive) with CCRF-CEM; 7.78 µM (inactive) with A549; 10.7 µM (inactive) in the test on NCI-H23. In addition, the GI50 was 2.88 µM (inactive) in the test on COLO 205; 6.15 µM (inactive) in the test with RPMI-8226; 14.3 µM (inactive) in the test with HOP-62; 8.81 µM in the test on HCT-15; > 10 µM (inactive) in the test on UACC-62; 6.92 µM (inactive) with SF-295. In addition, the GI50 was 11 µM (inactive) in the test on SNB-75; > 10 µM (inactive) with KM12; 10.8 µM (inactive) in the test with OVCAR-8; 1.58 µM (inactive) in the test on RXF 393; 6.98 µM (inactive) in the test on OVCAR-4.

As for `O=C1C(c2ccccc2)=C(c2ccccc2)C(c2ccccc2)/C1=C1\C(=O)C(c2ccccc2)=C(c2ccccc2)C1c1ccccc1` (configuration not stated), the GI50 in the test with U-251, in the test with ACHN, in the test with SF-539, with A549, in the test on NCI-H23 and in the test with COLO 205 was > 100 µM (inactive) throughout. For the same compound, the GI50 was > 100 µM (inactive) in the test with RPMI-8226; > 100 µM (inactive) in the test with HOP-62; greater than 100 µM in the test with HCT-15; > 100 µM (inactive) in the test on UACC-62; > 100 µM (inactive) in the test with SF-295; > 100 µM (inactive) in the test with SNB-75. Also, the GI50 with KM12, in the test on OVCAR-8, in the test on RXF 393 and in the test with OVCAR-4 was > 100 µM (inactive) in each case.

Consider `CCOC(=O)C1(Br)S(=O)(=O)OCCOS1(=O)=O`, for which the GI50 in the test on U-251, with ACHN, with SF-539, in the test on CCRF-CEM, with A549 and in the test with NCI-H23 was > 100 µM (inactive) in each case. Besides, the GI50 was > 100 µM (inactive) with COLO 205; > 100 µM (inactive) with RPMI-8226; > 100 µM (inactive) in the test with HOP-62; greater than 100 µM with HCT-15; > 100 µM (inactive) in the test with UACC-62; > 100 µM (inactive) in the test on SF-295. The GI50 in the test with SNB-75, in the test on OVCAR-8, in the test with RXF 393 and with OVCAR-4 was > 100 µM (inactive) throughout.

For `Clc1ccc(-c2c(C3=NCCCN3)nnn2-c2ccccc2)cc1`, the GI50 was > 100 µM (inactive) in the test with U-251; > 100 µM (inactive) in the test on ACHN; > 100 µM (inactive) in the test with SF-539; 35.9 µM (inactive) with CCRF-CEM; > 100 µM (inactive) in the test with A549; > 100 µM (inactive) in the test on NCI-H23. Besides, the GI50 in the test on COLO 205 is 34.9 µM (inactive); in the test on HOP-62, > 100 µM (inactive); with HCT-15, 43.6 µM; in the test on UACC-62, > 100 µM (inactive); with SF-295, > 100 µM (inactive); with SNB-75, > 100 µM (inactive). For the same compound, the GI50 in the test with KM12, with OVCAR-8, in the test on RXF 393 and in the test with OVCAR-4 was > 100 µM (inactive) throughout.

Take `C/C=C/C(=O)[C@@H](O)C(C)C`: the GI50 in the test on U-251, with ACHN, in the test on A549, with NCI-H23, in the test with COLO 205 and in the test on RPMI-8226 was > 100 µM (inactive) each time. Moreover, the GI50 was greater than 100 µM in the test with HCT-15; > 100 µM (inactive) with UACC-62; > 100 µM (inactive) with SF-295; > 100 µM (inactive) with SNB-75; > 100 µM (inactive) with KM12; > 100 µM (inactive) in the test on OVCAR-8. Also, the GI50 in the test on RXF 393 and with OVCAR-4 was > 100 µM (inactive) in each case.

Take `Cc1ccc(C(=O)N2c3ccccc3N(C)n3cccc3C2CC(=O)O)cc1` (configuration not stated): the GI50 in the test on ACHN, with SF-539, in the test on CCRF-CEM, with A549, in the test on NCI-H23 and in the test on COLO 205 was > 100 µM (inactive) throughout. The GI50 in the test on RPMI-8226 was > 100 µM (inactive); in the test with HOP-62 it was > 100 µM (inactive); in the test on HCT-15, greater than 100 µM; in the test on UACC-62 it was > 100 µM (inactive); with SF-295, > 100 µM (inactive); with SNB-75, > 100 µM (inactive). The GI50 with KM12, in the test with OVCAR-8, in the test with RXF 393 and in the test on OVCAR-4 was > 100 µM (inactive) throughout.

Regarding `CCN(CC)CCCC(C)Nc1c2ccc(Cl)cc2nc2cc(Cl)ccc12` (configuration not stated), the GI50 with U-251 was 5.09 µM (inactive); with SF-539 it was 4.34 µM (inactive); with CCRF-CEM, 1.76 µM (inactive); with A549, 4.78 µM (inactive); with NCI-H23, 6.62 µM (inactive); in the test on COLO 205, 1.94 µM (inactive). Also, the GI50 was 2.23 µM (inactive) in the test with RPMI-8226; 8.18 µM (inactive) in the test with HOP-62; 3.04 µM with HCT-15; 6.89 µM (inactive) in the test with UACC-62; 3.4 µM (inactive) in the test with SF-295; 7.03 µM (inactive) in the test on SNB-75. The GI50 in the test with KM12 is 3.56 µM (inactive); in the test with OVCAR-8 it was 4.55 µM (inactive); in the test with RXF 393, 3.23 µM (inactive); in the test on OVCAR-4, 3.37 µM (inactive).
